Results taken from article PMC12436592 (Nature Communications, 2025).
“And” between values parts separate entries of the source, which are not always exact repeats. Identical values can stand only once.

Columns and labels:
hP2X7R [1] = target: T1, hP2X7R (Homo sapiens, UniProt Q99572); test: Ethidium bromide accumulation in hP2X7R-expressing HEK293 cells; type: cell-based; set-up: expressed in transfected cells; conditions: for mean % of maximum accumulation / MAX100 (% of maximum accumulation, replicates 1-3): BzATP 6 μM; for IC50: hP2X7R, ethidium bromide accumulation, mean ± SD, triplicate; for ΔΔGexp: relative to UB-ALT-P30, from experimental pIC50 values, T = 298 K; for MAX100 (% of maximum accumulation, replicates 1-3): single replicates
T1 sequence (Q99572 1-595): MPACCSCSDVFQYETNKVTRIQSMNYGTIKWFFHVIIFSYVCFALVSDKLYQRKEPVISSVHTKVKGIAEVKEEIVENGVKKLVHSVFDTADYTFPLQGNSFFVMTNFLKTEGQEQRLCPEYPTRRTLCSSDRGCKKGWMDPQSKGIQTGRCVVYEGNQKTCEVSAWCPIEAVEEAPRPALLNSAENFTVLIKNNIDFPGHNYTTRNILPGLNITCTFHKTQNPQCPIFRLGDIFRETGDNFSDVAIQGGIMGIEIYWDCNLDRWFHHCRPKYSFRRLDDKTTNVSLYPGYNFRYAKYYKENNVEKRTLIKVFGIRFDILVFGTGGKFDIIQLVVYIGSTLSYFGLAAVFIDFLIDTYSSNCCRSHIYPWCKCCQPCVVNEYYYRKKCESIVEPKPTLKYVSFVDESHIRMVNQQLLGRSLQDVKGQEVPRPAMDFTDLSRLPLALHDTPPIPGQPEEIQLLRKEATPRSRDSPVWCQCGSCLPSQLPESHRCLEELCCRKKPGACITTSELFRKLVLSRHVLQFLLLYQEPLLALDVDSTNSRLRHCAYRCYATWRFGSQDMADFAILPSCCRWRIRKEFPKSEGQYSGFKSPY
Method: Human P2X7R-expressing HEK293 cells were cultured in a humidified atmosphere of 5% CO2 at 37 °C in Dulbecco’s Modification of Eagle’s Medium (DMEM; Corning) supplemented with 10% (v/v) fetal bovine serum (Corning) and 1% (v/v) antibiotic–antimycotic (Gibco)[75]. To perform the assay, the DMEM was removed, and the HEK293 cells were washed with 3 mL of 1X DPBS (Dulbecco’s Phosphate-Buffered Saline; Corning). After the removal of DPBS solution, the cells were detached from the dish with 1 mL of trypsin/EDTA (Gibco), and the cells were collected by centrifugation. The cells (density of 2.25 × 10^7) were re-suspended in 4-(2-hydroxyethyl)-1-piperazineethanesulfonic acid (HEPES)-buffered salt solution consisting of 140 mM potassium chloride, 1 mM ethylene diamine tetraacetic acid (EDTA), 5 mM glucose, 20 mM HEPES, and 0.1 mM ethidium bromide (pH 7.4). The vehicles or appropriate range of concentrations of compounds (10 μL, pre-diluted in 10% (v/v) DMSO in DW from 10 mM stock) were added to each well of 96-well black plate (Corning), and 80 μL of the cell suspension was subsequently added to each well. BzATP (10 μL, pre-diluted in DW from 10 mM stock) was then added, and the final assay volume was maintained at 100 μL. After the incubation in 5% CO2 at 37 °C for 2 h, the ethidium dye uptake was detected by measuring the fluorescence (excitation wavelength of 530 nm and emission wavelength of 590 nm) of each well using a CHAMELEON™ Multi-Technology Plate Reader. The antagonistic activities of compounds are expressed as the percentages relative to the maximum accumulation of ethidium bromide observed in the control group with the stimulation of the hP2X7R by an agonist, BzATP. The IC50 values of compounds as antagonists were calculated using nonlinear regression analysis using OriginPro 9.1 software.

hP2X7R [2] = target: T1, hP2X7R; test: TEVC determination of antagonist binding kinetics in Xenopus oocytes; type: cell-based; set-up: expressed in transfected cells; host or cells: Xenopus laevis oocytes injected with capped cRNA (modified pUC19 vector, T7); conditions: single replicates
Method: Xenopus laevis frogs were from Nasco International (Fort Atkinson, WI) and kept at the Core Facility Animal Models (CAM) of the Biomedical Center (BMC) of LMU Munich, Germany (Az:4.3.2–5682/LMU/BMC/CAM) in accordance with the EU Animal Welfare Act. Ovaries were surgically extracted (ROB_54-011-AZ 2532.Vet_02-23-166), treated with collagenase (Nordmark, Uetersen, Germany 1.0–1.5 mg/mL, ≥2 at RT) and defolliculated (15-min treatment in Ca^2+-free oocyte Ringer (90 mM NaCl, 1 mM KCl, 2 mM MgCl2, 5 mM HEPES), respectively. 50 nL of cRNA (0.5 µg/µL) were injected using a Nanoject II injector (Science Products, Drummond) and oocytes were kept in ND96 (96 mM NaCl, 2 mM KCl, 1 mM MgCl2, 1 mM CaCl2, 5 mM HEPES, pH 7.4–7.5). The plasmid containing the hP2X7R was linearized with NotI-HF (NEB) and purified with the MinElute Reaction Cleanup Kit (Qiagen, Hilden, Germany). Capped cRNA was synthesized using the mMESSAGE mMACHINE™ T7 Transcription Kit (ThermoFisher Scientific, Schwerte, Germany) and dissolved in nuclease-free water (500 ng/µL). Injected oocytes were allowed to express for at least 36 hours.
Two-electrode voltage clamp recordings were performed at room temperature and a holding potential of −70 mV using a Turbo Tec-05X Amplifier (npi electronic, Tamm, Germany), a magnetic valve system, and CellWorks E 5.5.1 software. Currents were filtered at 1 kHz and digitized at 200 Hz. Electrode resistances were below 1.2 MΩ. […] Recordings were performed in ND96.
After obtaining reproducible agonist-evoked responses, solutions were switched to antagonist-containing recording solutions with and without ATP to determine association rates. Responses following antagonist application were normalized to the preceding, stabilized agonist responses. Dissociation was determined in 1- or 2 min intervals when currents were reduced to <10%. Association curves were fit to the data by the equation % Response = (100-Plateau)*exp(-kobs*Time) + Plateau, where Plateau indicates the response at equilibrium and kobs the experimentally determined on-rate. All data were analyzed using Prism software (GraphPad Software, Inc., Version 8.3.0, San Diego, CA) and are presented as means ± SD from at least three oocytes. […] The final concentration of DMSO in the recording solution was ≤1%.
Supplementary Fig. 10: Kinetics of ligands binding to the hP2X7R measured by TEVC. (A) […]
All data represented as mean ± S.D. with n=3, 7, 7, and 7 f or the experiments performed at 3 nM, 10 nM, 30 nM, and 100 nM […]
(B) Representative current traces for t he activation
(C) On- and off-r at e constants and Ki
Observed on- r at es kobs were determined by fitting the data (Fig. 4H, Supplementary Fig. 10A) to the function: % response = (100- Plateau)*exp(-kobs*time)+Plateau and plotted against the antagonist concentrations to obtain koff according to k obs=kon*F+koff. Assuming a (simplified) 1:1 binding model, of f-r at e constant koff and Ki values were estimated using the previous formulas as well as Ki=koff/kon. […]
determined by Ca2+ imaging (18 nM, Fig. 3B ) and the binding equilibrium reached at each […]
values of UB-MBX-46 c annot reflect an accurate value due to the nearly negligible dissociation on the timescale of the experiment. If k off was estimated based on the IC50 value (IC50 = koff/kon panel D), a more accurate koff value can be obtained. Numbers in square brackets are 95% Confidence Intervals. *values obtained from an extrapolated dose inhibition curve from D . (D) The plateau values, representing the binding equilibrium, were used to generate dose inhibition

[3] = antagonist concentration 3.2 (unit not given)
[4] = antagonist concentration 16 (unit not given)
[5] = antagonist concentration 80 (unit not given)
[6] = antagonist concentration 400 (unit not given)
[7] = antagonist concentration 2000 (unit not given)
[8] = antagonist concentration 10000 (unit not given)
[9] = antagonist concentration 100 (unit not given)
[10] = antagonist concentration 1000 (unit not given)

mean % of maximum accumulation (hP2X7R [1]; [3]) | mean % of maximum accumulation (hP2X7R [1]; [4]) | mean % of maximum accumulation (hP2X7R [1]; [5]) | mean % of maximum accumulation (hP2X7R [1]; [6]) | mean % of maximum accumulation (hP2X7R [1]; [7]) | mean % of maximum accumulation (hP2X7R [1]; [8]) | IC50 (hP2X7R [1]) | MAX100 (% of maximum accumulation, replicates 1-3) (hP2X7R [1]; [3]) | MAX100 (% of maximum accumulation, replicates 1-3) (hP2X7R [1]; [4]) | MAX100 (% of maximum accumulation, replicates 1-3) (hP2X7R [1]; [5]) | MAX100 (% of maximum accumulation, replicates 1-3) (hP2X7R [1]; [6]) | MAX100 (% of maximum accumulation, replicates 1-3) (hP2X7R [1]; [7]) | MAX100 (% of maximum accumulation, replicates 1-3) (hP2X7R [1]; [8]) | SMILES | ΔΔGexp (hP2X7R [1]) | further results
92.6488% | 90.4406% | 85.6943% | 54.1625% | 8.486% | 7.125% | 0.43 ± 0.064 µM | 94.8207 and 85.2995 and 97.8261 | 88.8446 and 87.4773 and 95 | 92.8287 and 88.3848 and 75.8696 | 70.5179 and 47.1869 and 44.7826 | 13.1474 and 15.7895 and -3.478 | 12.9482 and 12.3412 and -3.913 | O=C(NNc1ccccc1Cl)C12C3C4C5C3C1C5C42 (centres unmarked) [UB-ALT-P38] | 1.36 ± 1.50 kcal/mol | –
– | – | – | – | – | 5.192% | > 1 µM | – | – | – | – | – | 17.7966 and 0.7519 and -2.973 | CC12CC3(C)CC(C)(C1)CC(C(=O)NNc1ccccc1Cl)(C2)C3 [UB-ALT-P37] | >1.88 kcal/mol | mean % of maximum accumulation (hP2X7R [1]; [9]): 69.1292%; mean % of maximum accumulation (hP2X7R [1]; [10]): 66.8307%; MAX100 (% of maximum accumulation, replicates 1-3) (hP2X7R [1]; [9]): 71.3983 and 82.2055 and 53.7838; MAX100 (% of maximum accumulation, replicates 1-3) (hP2X7R [1]; [10]): 82.6271 and 51.3784 and 66.4865
75.2635% | 81.0675% | 68.3254% | 62.0321% | 5.603% | -3.752% | 0.477 ± 0.17 µM | 66.4908 and 84.0361 | 77.5726 and 94.2771 and 71.3528 | 56.9921 and 86.4458 and 61.5385 | 60.1583 and 61.747 and 64.191 | 0.7916 and 7.53 and 8.488 | -6.86 and -5.723 and 1.326 | CC12CC3CC(C)(C1)CC(C(=O)NNc1ccccc1Cl)(C3)C2 [UB-ALT-P36] | 1.43 ± 1.93 kcal/mol | –
– | – | – | – | – | – | – | – | – | – | – | – | – | O=C(NNc1ccccc1Cl)C12CC3CC(CC(C3)C1)C2 [UB-MALT-P30] | – | on-rate to hP2X7R, Response [%] (hP2X7R [2]; 3 nM, time 2 min): 96.4% and 100% and 92.9%; on-rate to hP2X7R, Response [%] (hP2X7R [2]; 3 nM, time 4 min): 96.4% and 97.5% and 92.9%; on-rate to hP2X7R, Response [%] (hP2X7R [2]; 3 nM, time 6 min): 96.4% and 97.5% and 92.9%; on-rate to hP2X7R, Response [%] (hP2X7R [2]; 10 nM, time 2 min): 93.8% and 78.8% and 87.9% and 77.9% and 84.1% and 80.6% and 76.1%; on-rate to hP2X7R, Response [%] (hP2X7R [2]; 10 nM, time 4 min): 83.3% and 71.2% and 77.8% and 75.3% and 77.2% and 75% and 67.4%; on-rate to hP2X7R, Response [%] (hP2X7R [2]; 10 nM, time 6 min): 77.1% and 65.4% and 72.7% (2×) and 74% and 66.7% and 65.2%; on-rate to hP2X7R, Response [%] (hP2X7R [2]; 10 nM, time 8 min): 58.3% and 61.5% and 69.7% and 72.7% (2×) and 66.7% and 63%; on-rate to hP2X7R, Response [%] (hP2X7R [2]; 10 nM, time 10 min): 45.8% and 57.7% and 67.7% and 72.7% (2×) and 66.7% and 65.2%; on-rate to hP2X7R, Response [%] (hP2X7R [2]; 10 nM, time 12 min): 39.6% and 55.8% and 65.7% and 72.7% (2×) and 66.7% and 65.2%; on-rate to hP2X7R, Response [%] (hP2X7R [2]; 30 nM, time 2 min): 54.3% and 59.3% and 51.2% and 37.5% and 42.9% and 45.7% and 46.9%; on-rate to hP2X7R, Response [%] (hP2X7R [2]; 30 nM, time 4 min): 45.7% and 44.4% and 19.5% and 33.3% (2×) and 34.3%; on-rate to hP2X7R, Response [%] (hP2X7R [2]; 30 nM, time 6 min): 42.4% and 37% and 17.1% and 20.8% and 28.6% and 25.7% and 28.3%; on-rate to hP2X7R, Response [%] (hP2X7R [2]; 30 nM, time 8 min): 40.2% and 33.3% and 14.6% and 20.8% and 23.8% and 22.9% and 22.4%; on-rate to hP2X7R, Response [%] (hP2X7R [2]; 30 nM, time 10 min): 39.1% and 33.3% and 9.8% and 29.2% and 23.8% and 22.9% and 22.4%; on-rate to hP2X7R, Response [%] (hP2X7R [2]; 100 nM, time 2 min): 20% and 4.2% and 3.2% and 8.2% and 20.5% and 17.6% and 21.1%; on-rate to hP2X7R, Response [%] (hP2X7R [2]; 100 nM, time 4 min): 6.7%; on-rate to hP2X7R, Response [%] (hP2X7R [2]; 100 nM, time 6 min): 6.7% and 1.4% and 0% and 2% and 10.8% and 10.6% and 10.5%
